What was measured:
[1] = Solubilization of dyes in aqueous polymer solution vs water, TLC spot comparison; conditions: for concentration in 50 mg/ml polymer: 50 mg/ml aqueous C16-Polymer A (Example 1), approximate, from TLC spot intensity
[2] = tested on: ATCC VR-1520 (H2N1) Human influenza virus

| SMILES | concentration in 50 mg/ml polymer [1] | concentration in H2O ([1]; deionized water, unbuffered, room temperature) [ng/mL] | solubility ([1]; deionized water (unbuffered), water, thermodynamic from solid) [µg/mL] | body weight loss ([2]; 7 days) [%] | increase in survival time ([2]; mouse, in vivo) [h] |
| --- | --- | --- | --- | --- | --- |
| Cc1ccccc1/N=N/c1ccc(/N=N/c2c(O)ccc3ccccc23)c(C)c1 [Sudan IV] | approximately 0.2 mg/ml | 0 | – | – | – |
| O=C1OC2(c3cc(Cl)c(O)cc3Oc3cc(O)c(Cl)cc32)c2ccccc21 [Dichlorofluorescein, dichlorofluorescein] | approximately 5 mg/ml | – | ≥ 10 | – | – |
| COC1(C(=O)O)CC(O)C(N)C(C(O)C(O)CO)O1 (stereo not drawn) [positive control, neuraminic acid β-methyl glycoside] | – | – | – | −9.8 | 2.94 |

Source: patent US20100008938A1, “SELF ASSEMBLING AMPHIPHILIC POLYMERS AS ANTIVIRAL AGENTS” (priority 2007, published 2010)
